Source: patent publication US8361711B2, “Tools and methods useful in characterising the immunotoxic activity of xenobiotic substances” (National Institute of Public Health and the Environment, …, priority 2004, dated 2013)

What was measured:
[1] = test system: IL-2 fused to a stabile form of EGFP; assay: Clones with IL-2 regulatory elements fused to a stabile form of EGFP; type: cell-based, mouse; conditions: all tested concentrations
Description: (§1) Samples were analyzed in an EPICS® XL-MCL Coulter flow cytometer with Expo v.2 Analysis Software/Expo32 Analysis Software (Applied Cytometry Systems, Sheffield, UK). or any other suitable flow cytometer. Viable and dead cells were gated separately and results were determined based on fluorescence associated with viable cells only. Regions were set in control cells and the same regions were used in induction controls and chemically challenged cells. Percent positive cells and fluorescence intensity were noted and used in further calculations.
(§2) Index numbers were calculated from the median fluorescence intensity of viable cells. Cells incubated in the absence or presence of ionomycin/PMA were analysed separately. Each clone incubated with or without ionomycin/PMA, but without further chemicals/compounds was defined as index number=1, and the index numbers for the other exposures were calculated from this.
(§3) One way ANOVAs (one way analysis of variance) were performed. In cases where normality failed, we used Kruskal-Wallis One Way Analysis of Variance on Ranks. If the differences between groups were statistically significant (p<0.05), we continued with tests for multiple comparisons. In normally distributed data we used Bonferroni t-test and multiple comparisons versus the control. The control was chosen to be the sample incubated in the presence or absence of ionomycin/PMA only. When normality failed we used […] for multiple comparisons versus the control.

[2] = test system: IFN-γ fused to a stabile form of EGFP; assay: Clones with IFN-γ regulatory elements fused to a stabile form of EGFP; type: cell-based, mouse; conditions: all tested concentrations
Description: as §1, §2, §3

[3] = test system: cell lines developed in the project
Description: The basic cytotoxicty assay employed was LDH release. Several cytotoxicity assays were performed independently in two laboratories. […] In addition, the cytotoxicity associated with the solvent was also tested to eliminate the possibility of interference in the test outcome.
Cells were plated in 24 well microtiter plates at a density of 0.5×10^6 cells/mL and with a final volume of 1.5 mL/well. Two controls were included for each cell line, in each experiment.

## CC1(C)S[C@@H]2[C@H](NC(=O)Cc3ccccc3)C(=O)N2[C@H]1C(=O)[O-].[Na+] [penicillin G, Penicillin G (Benzylpenicillin) sodium salt]
[1]; absence of ionomycin/PMA
  IL-2 expression, stabile EGFP clone: failed to alter expression
[1]; presence of ionomycin/PMA
  IL-2 expression, stabile EGFP clone: failed to alter expression
[2]; absence of ionomycin/PMA
  IFN-γ expression, stabile EGFP clone: failed to alter expression
[2]; presence of ionomycin/PMA
  IFN-γ expression, stabile EGFP clone: failed to alter expression
[3]
  toxicity (LDH-assay): did not find penicillin G to be toxic
